Here are results for 28 molecules from patent EP4800013A1, “PARG INHIBITOR” (Shanghai Qilu Pharmaceutical Research and Development …, priority 2023, dated 2025).

Each structure is given as a SMILES string. Where two headings read alike, the source gives them in different places.

The target of one assay is T1, PARG (Homo sapiens, UniProt Q86W56).
T1 construct: made in house
Description: Enzymatic inhibitory activity against PARG, HTRF assay. The format is biochemical. The procedure, abridged: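 Purified PARG pre-incubated with compounds (top 10 µM, 3- to 5-fold dilutions, duplicates) 15 min at room temperature, then PARylated PARP1 substrate added for 60 min in Tris pH 7.4 buffer with DTT, EDTA/EGTA, KCl. HTRF (His-Tb/SA-XL665) read-out; IC50 by four-parameter logistic fit, normalised to DMSO and control-inhibitor wells.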
A general note: TR-FRET usually uses a lanthanide donor and a delayed reading to cut background.

The subject of a further assay is KURAMOCHI cells. As to the kind of experiment: Inhibition of proliferation of KURAMOCHI cells (CellTiter-Glo, intracellular ATP). It counts as cell-based. The following applies: 168 h, incubated for 7 days, read-out: IC50 against KURAMOCHI cells. The procedure, abridged: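 KURAMOCHI cells seeded at 4000/well, incubated overnight, then treated with 9-point 1:4 compound series from 10 µM (0.5% DMSO) for 7 days at 37°C, 5% CO2. Viability read by CellTiter-Glo luminescence; inhibition normalised to medium-only (100%) and DMSO (0%) controls, IC50 from variable-slope four-parameter fit.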
Background: Cellular ATP, detected with luciferase, serves as a proxy for viable cell number.

[1] abbreviates: HTRF, PARylated PARP1 protein as substrate, 60 minutes at room temperature, read-out: IC50 against PARG enzyme.

T1 sequence (Q86W56 whole entry): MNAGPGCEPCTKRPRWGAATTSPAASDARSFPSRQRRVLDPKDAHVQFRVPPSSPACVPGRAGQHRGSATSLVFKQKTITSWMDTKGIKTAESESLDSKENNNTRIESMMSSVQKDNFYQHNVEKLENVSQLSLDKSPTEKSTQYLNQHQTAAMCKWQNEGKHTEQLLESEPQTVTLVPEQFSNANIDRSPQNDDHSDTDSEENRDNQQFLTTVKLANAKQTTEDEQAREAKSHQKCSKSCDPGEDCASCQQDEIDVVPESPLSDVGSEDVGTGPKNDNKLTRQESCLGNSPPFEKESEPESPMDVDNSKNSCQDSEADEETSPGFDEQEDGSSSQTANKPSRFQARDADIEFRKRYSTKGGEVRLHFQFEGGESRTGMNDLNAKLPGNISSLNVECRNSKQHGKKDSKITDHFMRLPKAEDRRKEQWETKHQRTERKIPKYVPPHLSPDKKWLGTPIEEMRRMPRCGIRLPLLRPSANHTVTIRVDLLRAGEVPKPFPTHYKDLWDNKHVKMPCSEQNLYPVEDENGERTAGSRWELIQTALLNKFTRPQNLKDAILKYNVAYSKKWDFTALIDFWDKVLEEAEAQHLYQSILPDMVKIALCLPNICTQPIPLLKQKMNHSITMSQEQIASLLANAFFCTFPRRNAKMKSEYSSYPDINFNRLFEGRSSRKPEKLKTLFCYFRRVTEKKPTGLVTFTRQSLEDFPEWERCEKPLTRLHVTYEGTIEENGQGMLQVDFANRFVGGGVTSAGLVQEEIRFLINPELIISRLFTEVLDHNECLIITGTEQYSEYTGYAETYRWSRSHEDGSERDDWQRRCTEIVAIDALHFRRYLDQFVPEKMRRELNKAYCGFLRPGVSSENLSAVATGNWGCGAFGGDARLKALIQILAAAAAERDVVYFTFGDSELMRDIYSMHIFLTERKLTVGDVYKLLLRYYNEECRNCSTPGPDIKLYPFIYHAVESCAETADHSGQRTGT

As for `CN(C)C(=O)N1CC=C(c2cc(S(=O)(=O)NC3(C)CC3)cc3c2n(C)c(=O)n3-c2nnc(C(F)F)s2)CC1` [Compound A038], the IC50 (commonly the point on the concentration scale where inhibition reaches its midpoint) is 5.2 nM at PARG (setting [1]) and 7 nM with KURAMOCHI cells.

As for `CN(C)C(=O)N1CCC(c2cc(S(=O)(=O)NC3(C)CC3)cc3c2n(C)c(=O)n3-c2nnc(C(F)F)s2)CC1` [Compound A039], the IC50 came out at 3.5 nM at PARG (setting [1]) and 7 nM in the assay on KURAMOCHI cells.

Take `Cn1ccnc1N1CCN(c2cc(S(=O)(=O)NC3(C)CC3)cc3c2n(C)c(=O)n3-c2nnc(C(F)F)s2)CC1` [Compound A040]: the values for the IC50 on PARG (setting [1]) and with KURAMOCHI cells were 5 nM and 9 nM, respectively.

Regarding `C=CCn1c(=O)n(-c2nnc(C(F)F)s2)c2cc(S(=O)(=O)NC3(C#N)CC3)cc(N3CCN(C(=O)N(C)C)CC3)c21` [Compound A041], the values for the IC50 on PARG (setting [1]) and with KURAMOCHI cells were 4.4 nM and 11 nM, respectively.

Take `[2H]C([2H])([2H])N(C(=O)N1CCN(c2cc(S(=O)(=O)NC3(C#N)CC3)cc3c2n(CC=C)c(=O)n3-c2nnc(C(F)F)s2)CC1)C([2H])([2H])[2H]` [Compound A042]: the IC50 was 5.1 nM on PARG (setting [1]) and 6 nM with KURAMOCHI cells.

Regarding `CCn1c(=O)n(-c2nnc(C(F)F)s2)c2cc(S(=O)(=O)NC3(C#N)CC3)cc(N3CCN(C(=O)N(C)C)CC3)c21` [Compound A043], the IC50 on PARG (setting [1]) was determined as 8 nM; with KURAMOCHI cells, 11 nM.

Turning to `CC(C)n1c(=O)n(-c2nnc(C(F)F)s2)c2cc(S(=O)(=O)NC3(C#N)CC3)cc(N3CCN(C(=O)N(C)C)CC3)c21` [Compound A045], the IC50 at PARG (setting [1]) was 13.9 nM; in the assay with KURAMOCHI cells, 16 nM.

As for `CC(C)n1c(=O)n(-c2nnc(C(F)F)s2)c2cc(S(=O)(=O)NC3(C#N)CC3)cc(N3CCN(S(=O)(=O)C(C)C)CC3)c21` [Compound A046], the values for the IC50 on PARG (setting [1]) and with KURAMOCHI cells were 5.5 nM and 8 nM, respectively.

On to `CC(C)n1c(=O)n(-c2nnc(C(F)F)s2)c2cc(S(=O)(=O)NC3(C#N)CC3)cc(N3CCN(C(=O)N4CCCC4)CC3)c21` [Compound A047], for which the figures for the IC50 against PARG and with KURAMOCHI cells were 15 nM and 13 nM, respectively.

With `CC(C)n1c(=O)n(-c2nnc(C(F)F)s2)c2cc(S(=O)(=O)NC3(C#N)CC3)cc(N3CCN(C(=O)C(C)(C)F)CC3)c21` [Compound A048], the figures for the IC50 on PARG (setting [1]) and in the assay with KURAMOCHI cells were 34.8 nM and 27 nM, respectively.

In the case of `CC(C)n1c(=O)n(-c2nnc(C(F)F)s2)c2cc(S(=O)(=O)NC3(C#N)CC3)cc(N3CCN(C(=O)C(C)(C)O)CC3)c21` [Compound A049], the IC50 at PARG (setting [1]) was 15.7 nM; in the assay on KURAMOCHI cells, 50 nM.

With `CC(C)C(=O)N1CCN(c2cc(S(=O)(=O)NC3(C#N)CC3)cc3c2n(C(C)C)c(=O)n3-c2nnc(C(F)F)s2)CC1` [Compound A050], the IC50 at PARG (setting [1]) was 22.5 nM; with KURAMOCHI cells, 20 nM.

In the case of `C=CCn1c(=O)n(-c2nnc(C(F)F)s2)c2cc(S(=O)(=O)NC3(C#N)CC3)cc(N3CCN(C(=O)C(C)C)CC3)c21` [Compound A051], the figures for the IC50 at PARG (setting [1]) and in the assay with KURAMOCHI cells were 7.5 nM and 12 nM, respectively.

Regarding `C=CCn1c(=O)n(-c2nnc(C(F)F)s2)c2cc(S(=O)(=O)NC3(C#N)CC3)cc(N3CCN(S(=O)(=O)C(C)C)CC3)c21` [Compound A052], the IC50 at PARG (setting [1]) was found to be 1.6 nM; in the assay on KURAMOCHI cells, 2 nM.

Regarding `C=CCn1c(=O)n(-c2nnc(C(F)F)s2)c2cc(S(=O)(=O)NC3(C#N)CC3)cc(N3CCN(C(=O)C(C)(C)O)CC3)c21` [Compound A053], the figures for the IC50 at PARG (setting [1]) and with KURAMOCHI cells were 6.7 nM and 37 nM, respectively.

Consider `CC1(NS(=O)(=O)c2cc(N3CCNCC3)c3ncn(-c4nnc(C(F)F)s4)c3c2)CC1` [Compound B001], for which the IC50 came out at 44.7 nM on PARG (setting [1]) and 53 nM in the assay with KURAMOCHI cells.

With `CC(C)C(=O)N1CCN(c2cc(S(=O)(=O)NC3(C)CC3)cc3c2ncn3-c2nnc(C(F)F)s2)CC1` [Compound B002], the IC50 at PARG (setting [1]) is 11.6 nM; in the assay with KURAMOCHI cells it was 16 nM.

Take `CN(C)C(=O)N1CCN(c2cc(S(=O)(=O)NC3(C)CC3)cc3c2ncn3-c2nnc(C(F)F)s2)CC1` [Compound B003]: the IC50 stood at 10.2 nM at PARG (setting [1]) and 16 nM in the assay on KURAMOCHI cells.

Take `CC(C)C(=O)N1CCN(c2cc(S(=O)(=O)NC3(C#N)CC3)cc3c2ncn3-c2nnc(C(F)F)s2)CC1` [Compound B010]: the IC50 on PARG (setting [1]) amounted to 31.4 nM; in the assay with KURAMOCHI cells it was 59 nM.

For `CN(C)C(=O)N1CCN(c2cc(S(=O)(=O)NC3(C#N)CC3)cc3c2ncn3-c2nnc(C(F)F)s2)CC1` [Compound B011], the 50% inhibitory concentration (IC50) on PARG (setting [1]) was 9.9 nM; with KURAMOCHI cells, 32 nM.

As for `N#CC1(NS(=O)(=O)c2cc(N3CCN(C(=O)N4CCCC4)CC3)c3ncn(-c4nnc(C(F)F)s4)c3c2)CC1` [Compound B013], the IC50 was determined as 21.3 nM at PARG (setting [1]) and 53 nM in the assay with KURAMOCHI cells.

With `CC(C)(F)C(=O)N1CCN(c2cc(S(=O)(=O)NC3(C#N)CC3)cc3c2ncn3-c2nnc(C(F)F)s2)CC1` [Compound B014], the results for the IC50 on PARG (setting [1]) and in the assay on KURAMOCHI cells were 31.4 nM and 43 nM, respectively.

On to `C[C@H]1CN(c2cc(S(=O)(=O)NC3(C#N)CC3)cc3c2ncn3-c2nnc(C(F)F)s2)C[C@H](C)N1` [Compound B016], for which the IC50 at PARG (setting [1]) amounted to 21.2 nM; with KURAMOCHI cells, 74 nM.

In the case of `C[C@H]1CN(c2cc(S(=O)(=O)NC3(C#N)CC3)cc3c2ncn3-c2nnc(C(F)F)s2)C[C@H](C)N1C(=O)N(C)C` [Compound B017], the IC50 is 31.5 nM at PARG (setting [1]) and 20 nM with KURAMOCHI cells.

On to `COc1nc2c(N3CCN(C(=O)N(C)C)CC3)cc(S(=O)(=O)NC3(C#N)CC3)cc2n1-c1nnc(C(F)F)s1` [Compound B019], for which the IC50 on PARG (setting [1]) came out at 6.3 nM; in the assay on KURAMOCHI cells it was 19 nM.

For the molecule `COc1nc2c(N3CCN(C(=O)C(C)C)CC3)cc(S(=O)(=O)NC3(C#N)CC3)cc2n1-c1nnc(C(F)F)s1` [Compound B020], the IC50 at PARG (setting [1]) was 19.8 nM; in the assay with KURAMOCHI cells, 59 nM.

As for `Cc1nc2c(N3CCN(C(=O)N(C)C)CC3)cc(S(=O)(=O)NC3(C#N)CC3)cc2n1-c1nnc(C(F)F)s1` [Compound B021], the IC50 at PARG (setting [1]) was 25.1 nM; with KURAMOCHI cells, 51 nM.

Take `CN(C)C(=O)N1CCN(c2cc(S(=O)(=O)NC3(C)CC3)cc3c2nnn3-c2nnc(C(F)F)s2)CC1` [Compound C002]: the IC50 on PARG (setting [1]) amounted to 48.2 nM; in the assay on KURAMOCHI cells, 25 nM.
